Laboratory results taken from patent US9005644B2, “Pesticidal compositions” (BASF Corporation, priority 2008, dated 2015).
Values joined by “and” are separate entries in the source; they are usually repeats but may differ in a detail not shown here. Identical values can stand only once.

What was measured:
German cockroaches = test: Topical toxicity evaluation on adult German cockroaches, mortality (dead/moribund) at 24 hours; format: in vivo, Blattella germanica (German cockroach); details: for # dead at 24 h / Proportion dead at 24 h: amounts in label
Procedure: Toxicity evaluations were performed on 7-14 day old adult male and female German cockroaches (SCJ Strain, S.C. Johnson & Son, Racine, Wis.). Approximately 12 cockroaches were transferred to individual 100×20 mm polystyrene Petri dishes and anesthetized with a 15-25 second exposure to carbon dioxide. The inside edge of each Petri dish was lightly coated with mineral oil plus petroleum jelly in a 1:3 (wt/wt) ratio to minimize escape. Anesthetized cockroaches were positioned with their ventral side up, and a 1 μl drop of the diluted test composition was applied to the area between the meso- and metathoracic legs using a Rainin L-10, 10 μl capacity pipette (Rainin Instrument, LLC, Oakland, Calif.). Five replications of 12 male cockroaches were done for each test composition. Separate tests were done using female cockroaches. Results were evaluated at 24 hours following treatment. Cockroaches were scored as either alive (dorsal side up, active movement when abdomen prodded with dissecting probe) or moribund/dead (dorsal side up and no movement when abdomen prodded or ventral side up and insect unable to right itself).
The compositions comprising alcohol and/or mineral oil are described in Table 13.

cockroaches = test: LD50 and LD10 determination for cockroaches (dose-response mortality, probit analysis); format: in vivo; details: for LD10 mg/insect / LD50 mg/insect: cockroaches, probit analysis
Procedure: In this example, various mineral oils and alcohols were tested to determine, for cockroaches, the LD50 and LD10 for each.
PD23 and PD28 mineral oils were obtained from Sonneborn LLC, Mahwah, N.J. The physical properties of these oils are shown in Table 11. Each mineral oil was tested to determine the LD50 and LD10 (Table 12).
The tested alcohols were obtained from Sigma-Aldrich Corp., St. Louis, Mo. Each alcohol was tested to determine the LD50 and LD10 (Table 12).

[1] = Table 18, Exxsol D95 mineral oil
[2] = Table 3, male cockroaches, remainder acetone, per replicate

Compound	# dead at 24 h (German cockroaches; Table 13, per replicate (# treated 10-16), listed as 1-butanol (0.8 mg))	Proportion dead at 24 h (German cockroaches; Table 13, per replicate, listed as 1-butanol (0.8 mg))	# dead at 24 h (German cockroaches; Table 14, composite data)	Proportion dead at 24 h (German cockroaches; Table 14, composite data)	LD10 mg/insect (cockroaches) [mg/insect]	LD50 mg/insect (cockroaches) [mg/insect]	# dead at 24 h (German cockroaches; Table 13, per replicate (# treated 10-16), listed as 1-propanol (0.45 mg))	Proportion dead at 24 h (German cockroaches; Table 13, per replicate, listed as 1-propanol (0.45 mg))	# dead at 24 h (German cockroaches; [1])	Proportion dead at 24 h (German cockroaches; [1])	synergy with EXXSOL D95 (German cockroaches; alone and in combination with Exxsol D95 mineral oil)	LD10 (cockroaches; as detailed in Example 9) [mg/insect]	# dead at 24 h (German cockroaches; Table 13, per replicate (# treated 10-16), listed as 2-butanol (0.8 mg))	Proportion dead at 24 h (German cockroaches; Table 13, per replicate, listed as 2-butanol (0.8 mg))	Arcsine square root % dead (German cockroaches; [2])	Proportion dead (German cockroaches; [2])	Square root % dead (German cockroaches; [2])	# dead (German cockroaches; Table 3, male cockroaches, remainder acetone, per replicate (# tested 12-14))
CCCCO [Composition 1-butanol, 1-butanol]	0 (2×) and 1	0.000 (2×) and 0.100	1	0.029	0.877	1.018	–	–	–	–	–	–	–	–	–	–	–	–
CCCO [Composition 1-propanol, 1-propanol]	–	–	1	0.028	0.472	0.557	1 and 0 (2×)	0.083 and 0.000 (2×)	1	0.028	significant synergy	0.472	–	–	–	–	–	–
CCC(C)O (centres unmarked) [Composition 2-butanol, 2-butanol]	–	–	1	0.026	0.881	1.188	–	–	–	–	–	–	0 (2×) and 1	0.000 (2×) and 0.083	–	–	–	–
Hexylene glycol [Hexylene glycol (20%)]	–	–	–	–	–	–	–	–	–	–	–	–	–	–	0	0	0	1 and 0 (2×) and 3
